From US12528802B2, “Heterocyclic compound” (Takeda Pharmaceutical Company Limited, priority 2019, dated 2026)

Target: T1, glucosylceramide synthase (Homo sapiens, UniProt Q16739)
T1 construct: made in house; host or cells: Expi293F cells (transient expression, pcDNA3.3-TOPO vector); microsome fraction used as enzyme source
T1 sequence (Q16739 1-394): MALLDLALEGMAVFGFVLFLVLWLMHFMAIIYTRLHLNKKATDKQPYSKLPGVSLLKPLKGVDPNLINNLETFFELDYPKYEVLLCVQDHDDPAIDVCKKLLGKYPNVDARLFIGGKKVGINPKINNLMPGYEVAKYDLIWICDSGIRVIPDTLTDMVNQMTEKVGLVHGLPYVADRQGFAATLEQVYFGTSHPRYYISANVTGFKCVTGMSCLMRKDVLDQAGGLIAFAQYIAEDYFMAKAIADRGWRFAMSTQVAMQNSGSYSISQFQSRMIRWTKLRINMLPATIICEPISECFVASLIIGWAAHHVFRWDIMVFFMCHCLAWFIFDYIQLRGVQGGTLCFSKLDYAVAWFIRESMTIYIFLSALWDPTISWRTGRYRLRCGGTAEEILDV
Test: Glucosylceramide synthase (GCS) enzyme assay, microsome fraction, C8 glucosylceramide quantified by Rapidfire MS/MS
Format: biochemical
Settings: test compound 10 μM; 1.7 μM UDP-glucose, 3 μM C8 ceramide; room temperature 60 min
Method in brief: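 Test compound, 10 μM final, was run against human GCS from transfected Expi293F microsome fractions, using substrate solution of 6 μM C8 ceramide (in DOPC liposomes) plus 3.4 μM UDP-glucose, pH 7.5 Tris buffer, 60 min, room temperature. Product C8 glucosylceramide measured by Rapidfire MS/MS against an internal standard, % inhibition referenced to no-enzyme and DMSO wells.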

GCS enzyme inhibitory rate at 10 μM (%) (% of control)	Compound
98	O=C1c2ccnc(-c3ccccc3OCC(F)(F)F)c2CN1c1ccc(C(O)C(F)(F)F)nc1 (single isomer, unassigned) [Example 277, (R or S)-4-[2-(2,2,2-trifluoroethoxy)phenyl]-2-[6-(2,2,2-trifluoro-1-hydroxyethyl)pyridin-3-yl]-2,3-dihydro-1H-pyrrolo[3,4-c]pyridin-1-one]

Same assay, conditions: test compound 10 μM; 1.7 μM UDP-glucose, 3 μM C8 ceramide; room temperature 60 min; read-out: GCS enzyme inhibitory rate at 10 μM (%) (% of control)

Compound	inhibition at 10 µM [%]
COc1ccccc1-c1nccc2c1CN(c1ccc(C(F)(F)F)cc1)C2=O [Example 6, 4-(2-methoxyphenyl)-2-[4-(trifluoromethyl)phenyl]-2,3-dihydro-1H-pyrrolo[3,4-c]pyridin-1-one]	95
O=C1c2ccnc(-c3ccccc3OCC(F)(F)F)c2CN1c1ccc(C2(O)COC2)cn1 [Example 252, 2-[5-(3-hydroxyoxetan-3-yl)pyridin-2-yl]-4-[2-(2,2,2-trifluoroethoxy)phenyl]-2,3-dihydro-1H-pyrrolo[3,4-c]pyridin-1-one]	98
COc1ccccc1-c1nccc2c1CN(c1ccc(F)cc1)C2 [Example 172, 2-(4-fluorophenyl)-4-(2-methoxyphenyl)-2,3-dihydro-1H-pyrrolo[3,4-c]pyridine]	91
COc1cc(C(=O)N2CCC2)ccc1-c1nccc2c1CN(c1ccc(OC(F)F)nc1)C2=O [Example 123, 4-[4-(azetidine-1-carbonyl)-2-methoxyphenyl]-2-[6-(difluoromethoxy)pyridin-3-yl]-2,3-dihydro-1H-pyrrolo[3,4-c]pyridin-1-one]	85
O=C1c2ccnc(-c3ccccc3N3CCOCC3)c2CN1c1ccc(F)cc1 [Example 30, 2-(4-fluorophenyl)-4-[2-(morpholin-4-yl)phenyl]-2,3-dihydro-1H-pyrrolo[3,4-c]pyridin-1-one]	91
O=C1CC2=C(CN(c3ccc(F)cc3)C2=O)N(c2ccc(F)cc2OCC(F)(F)F)N1 [Example 115, 6-(4-fluorophenyl)-1-[4-fluoro-2-(2,2,2-trifluoroethoxy)phenyl]-6,7-dihydro-1H-pyrrolo[3,4-c]pyridazine-3,5(2H,4H)-dione]	65
CSc1ccccc1-c1nccc2c1CN(c1ccc(F)cc1)C2=O [Example 31, 2-(4-fluorophenyl)-4-[2-(methylsulfanyl)phenyl]-2,3-dihydro-1H-pyrrolo[3,4-c]pyridin-1-one]	93
CC1(Oc2ccc(N3Cc4c(ccnc4-c4ccccc4OCC(F)(F)F)C3=O)cn2)COC1 [Example 204, 2-{6-[(3-methyloxetan-3-yl)oxy]pyridin-3-yl}-4-[2-(2,2,2-trifluoroethoxy)phenyl]-2,3-dihydro-1H-pyrrolo[3,4-c]pyridin-1-one]	97
CS(=O)(=O)c1ccc(N2Cc3ccnc(-c4ccc(F)cc4OCC(F)(F)F)c3C2)cc1 [Example 140, 4-[4-fluoro-2-(2,2,2-trifluoroethoxy)phenyl]-2-[4-(methanesulfonyl)phenyl]-2,3-dihydro-1H-pyrrolo[3,4-c]pyridine]	86
Cc1cccc(OCC(F)(F)F)c1-c1nccc2c1CN(c1ccc(S(=O)(=O)C(F)F)cc1)C2=O [Example 201, 2-[4-(difluoromethanesulfonyl)phenyl]-4-[2-methyl-6-(2,2,2-trifluoroethoxy)phenyl]-2,3-dihydro-1H-pyrrolo[3,4-c]pyridin-1-one]	99
O=C1c2ccnc(-c3ccc(F)cc3OC(F)F)c2CN1c1ccc(F)cn1 [Example 52, 4-[2-(difluoromethoxy)-4-fluorophenyl]-2-(5-fluoropyridin-2-yl)-2,3-dihydro-1H-pyrrolo[3,4-c]pyridin-1-one]	67
O=C1c2ccnc(-c3ccc(F)cc3OCC(F)(F)F)c2CN1c1ccc(C(O)(C(F)F)C(F)F)cc1 [Example 245, 4-[4-fluoro-2-(2,2,2-trifluoroethoxy)phenyl]-2-[4-(1,1,3,3-tetrafluoro-2-hydroxypropan-2-yl)phenyl]-2,3-dihydro-1H-pyrrolo[3,4-c]pyridin-1-one]	100
O=C1c2ccnc(-c3ccc(F)cc3OCC(F)(F)F)c2CN1c1ccc(C(O)(C(F)(F)F)C(F)(F)F)cc1 [Example 270, 4-[4-fluoro-2-(2,2,2-trifluoroethoxy)phenyl]-2-[4-(1,1,1,3,3,3-hexafluoro-2-hydroxypropan-2-yl)phenyl]-2,3-dihydro-1H-pyrrolo[3,4-c]pyridin-1-one]	99
COc1ccccc1-c1nccc2c1CN(c1ccc(F)cn1)C2=O [Example 43, 2-(5-fluoropyridin-2-yl)-4-(2-methoxyphenyl)-2,3-dihydro-1H-pyrrolo[3,4-c]pyridin-1-one]	95
COc1ccccc1-c1nccc2c1CN(c1ccc(OC(F)(F)F)cc1)C2=O [Example 3, 4-(2-methoxyphenyl)-2-[4-(trifluoromethoxy)phenyl]-2,3-dihydro-1H-pyrrolo[3,4-c]pyridin-1-one]	98

Further lines, results first:

inhibition at 10 µM [%]	Compound
99	Cc1cc2c(c(-c3ccccc3OCC(F)(F)F)n1)CN(c1ccc(C(C)(C)O)nc1)C2=O [Example 326, 2-[6-(2-hydroxypropan-2-yl)pyridin-3-yl]-6-methyl-4-[2-(2,2,2-trifluoroethoxy)phenyl]-2,3-dihydro-1H-pyrrolo[3,4-c]pyridin-1-one]
100	C#CCCC1(CCOc2ccc(N3Cc4c(ccnc4-c4ccccc4OCC(F)(F)F)C3=O)cc2)N=N1 [Example 349, 2-(4-{2-[3-(but-3-yn-1-yl)-3H-diaziren-3-yl]ethoxy}phenyl)-4-[2-(2,2,2-trifluoroethoxy)phenyl]-2,3-dihydro-1H-pyrrolo[3,4-c]pyridin-1-one]
97	CC(C)(O)COc1cnc(N2Cc3c(ccnc3-c3ccc(F)cc3OCC(F)(F)F)C2=O)cn1 [Example 299, 4-[4-fluoro-2-(2,2,2-trifluoroethoxy)phenyl]-2-[5-(2-hydroxy-2-methylpropoxy)pyrazin-2-yl]-2,3-dihydro-1H-pyrrolo [3,4-c]pyridin-1-one]
100	CC(C)(C#N)c1ccc(N2Cc3c(ccnc3-c3ccc(F)cc3OCC(F)F)C2=O)cc1 [Example 303, 2-(4-{4-[2-(2,2-difluoroethoxy)-4-fluorophenyl]-1-oxo-1,3-dihydro-2H-pyrrolo[3,4-c]pyridin-2-yl}phenyl)-2-methylpropanenitrile]
97	O=C1c2ccnc(-c3ccc(F)cc3OCC(F)(F)F)c2CN1c1ccc(C(O)C(F)(F)F)cc1 (single isomer, unassigned) [Example 285, (R or S)-4-[4-fluoro-2-(2,2,2-trifluoroethoxy)phenyl]-2-[4-(2,2,2-trifluoro-1-hydroxyethyl)phenyl]-2,3-dihydro-1H-pyrrolo [3,4-c]pyridin-1-one]
101	CC(C)(O)c1ccc(N2Cc3c(cc(C4CCOCC4)nc3-c3ccccc3OCC(F)(F)F)C2=O)cc1 [Example 379, 2-[4-(2-hydroxypropan-2-yl)phenyl]-6-(oxan-4-yl)-4-[2-(2,2,2-trifluoroethoxy)phenyl]-2,3-dihydro-1H-pyrrolo[3,4-c]pyridin-1-one]
98	O=C1c2ccnc(-c3ccc(F)cc3OCC(F)(F)F)c2CN1c1ccc(C2(O)CCOC2)cn1 (single isomer, unassigned) [Example 300, (R or S)-4-[4-fluoro-2-(2,2,2-trifluoroethoxy)phenyl]-2-[5-(3-hydroxyoxolan-3-yl)pyridin-2-yl]-2,3-dihydro-1H-pyrrolo [3,4-c]pyridin-1-one]
99	CC(C)(O)C(F)(F)c1ccc(N2Cc3c(ccnc3-c3ccccc3OCC(F)F)C2=O)cc1 [Example 339, 4-[2-(2,2-difluoroethoxy)phenyl]-2-[4-(1,1-difluoro-2-hydroxy-2-methylpropyl)phenyl]-2,3-dihydro-1H-pyrrolo[3,4-c]pyridin-1-one]
100	CC(O)(c1ccc(N2Cc3c(ccnc3-c3ccc(F)cc3OCC(F)(F)F)C2=O)cc1)C(F)F (racemic) [Example 296, rac-2-[4-(1,1-difluoro-2-hydroxypropan-2-yl)phenyl]-4-[4-fluoro-2-(2,2,2-trifluoroethoxy)phenyl]-2,3-dihydro-1H-pyrrolo[3,4-c]pyridin-1-one]
100	CC(C)(O)c1ccc(N2Cc3c(cc(C(F)F)nc3-c3ccccc3OCC(F)(F)F)C2=O)cn1 [Example 328, 6-(difluoromethyl)-2-[6-(2-hydroxypropan-2-yl)pyridin-3-yl]-4-[2-(2,2,2-trifluoroethoxy)phenyl]-2,3-dihydro-1H-pyrrolo[3,4-c]pyridin-1-one]
99	CC(C)(O)c1cc2c(c(-c3ccccc3OCC(F)F)n1)CN(c1ccc(F)cc1)C2=O [Example 356, 4-[2-(2,2-difluoroethoxy)phenyl]-2-(4-fluorophenyl)-6-(2-hydroxypropan-2-yl)-2,3-dihydro-1H-pyrrolo [3,4-c]pyridin-1-one]
100	CC(C)(O)c1ccc(N2Cc3c(cn(C4CC4)c(=O)c3-c3ccccc3OCC(F)(F)F)C2=O)cc1 [Example 371, 5-cyclopropyl-2-[4-(2-hydroxypropan-2-yl)phenyl]-7-[2-(2,2,2-trifluoroethoxy)phenyl]-1H-pyrrolo[3,4-c]pyridine-3,6(2H,5H)-dione]
